target: T1, recombinant EphB4 (Homo sapiens, UniProt P54760); assay: In vitro EphB4 enzyme assay (Alphascreen); assay type: biochemical
T1 construct: amino acids 563-987; Swiss-Prot Acc; No. P54760; purchased ProQinase GmbH 0178-0000-3
T1 sequence (P54760 563-987): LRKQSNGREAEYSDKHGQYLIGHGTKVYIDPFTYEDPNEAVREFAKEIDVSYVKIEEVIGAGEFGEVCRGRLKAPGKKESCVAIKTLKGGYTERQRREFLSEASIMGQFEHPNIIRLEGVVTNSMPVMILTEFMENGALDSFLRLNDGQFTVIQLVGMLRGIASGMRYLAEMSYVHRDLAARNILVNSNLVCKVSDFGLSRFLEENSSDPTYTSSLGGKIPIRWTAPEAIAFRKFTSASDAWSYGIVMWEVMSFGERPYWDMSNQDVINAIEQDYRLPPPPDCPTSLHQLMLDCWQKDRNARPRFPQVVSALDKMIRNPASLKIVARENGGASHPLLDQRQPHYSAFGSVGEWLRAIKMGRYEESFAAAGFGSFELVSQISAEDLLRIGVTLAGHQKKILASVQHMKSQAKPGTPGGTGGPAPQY
Description: This assay detects inhibitors of EphB4-mediated phosphorylation of a polypeptide substrate using Alphascreen™ luminescence detection technology. Briefly, recombinant EphB4 was incubated with a biotinylated-polypeptide substrate (biotin-poly-GAT) in presence of magnesium-ATP. The reaction was stopped by addition of EDTA, together with streptavidin-coated donor beads which bind the biotin-substrate containing any phosphorylated tyrosine residues. Anti-phosphotyrosine antibodies present on acceptor beads bind to phosphorylated substrate, thus bringing the donor & acceptor beads into close proximity. Subsequent excitation of the donor beads at 680 nm generated singlet oxygen species that interact with a chemiluminescer on the acceptor beads, leading to light emission at 520-620 nm. The signal intensity is directly proportional to the level of substrate phosphorylation and thus inhibition is measured by a decrease in signal.
Assay plates were then incubated at room temperature for 1 hr. […] The plates were sealed under natural lighting conditions, wrapped in aluminium foil and incubated in the dark for a further 20 hrs.
The resulting assay signal was determined on the Perkin Elmer EnVision plate reader. The minimum value was subtracted from all values, and the signal plotted against compound concentration to generate IC50 data.

Compared with CCN(c1ccnc(Nc2cc(N3CCOCC3)cc(S(C)(=O)=O)c2)n1)c1cc(CO)ccc1C [Example 8.1, [3-[ethyl-[2-[(3-methylsulfonyl-5-morpholin-4-yl-phenyl)amino]pyrimidin-4-yl]amino]-4-methyl-phenyl]methanol], Cc1ccc(CO)cc1N(CC(C)C)c1ccnc(Nc2cc(N3CCOCC3)cc(S(C)(=O)=O)c2)n1 [Example 8.3, [4-methyl-3-[2-methylpropyl-[2-[(3-methylsulfonyl-5-morpholin-4-yl-phenyl)amino]pyrimidin-4-yl]amino]phenyl]methanol] is 2.2-fold higher in IC50: 414 nM for the first, 917 nM for the second. The first is the more potent here.

Compared with Cc1ccc(CO)cc1N(CC1CC1)c1ccnc(Nc2cc(N3CCOCC3)cc(S(C)(=O)=O)c2)n1 [Example 8.4, [3-[cyclopropyl-methyl-[2-[(3-methylsulfonyl-5-morpholin-4-yl-phenyl)amino]pyrimidin-4-yl]amino]-4-methyl-phenyl]methanol], COc1ccc(C)c(N(C)c2ccnc(Nc3cc(N4CCOCC4)cc(S(C)(=O)=O)c3)n2)c1 [Example 12.2, N′-(5-methoxy-2-methyl-phenyl)-N′-methyl-N-(3-methylsulfonyl-5-morpholin-4-yl-phenyl)pyrimidine-2,4-diamine] is 36-fold lower in IC50: 1070 nM for the first, 29.4 nM for the second.

Going from Cc1ccc(N(C)c2ccnc(Nc3cc(N4CCOCC4)cc(N4CCOCC4)c3)n2)cc1 [Example 10.1, N-(3,5-dimorpholin-4-ylphenyl)-N′-methyl-N′-(4-methylphenyl)pyrimidine-2,4-diamine] to CN(c1ccc(C#N)cc1)c1ccnc(Nc2cc(N3CCOCC3)cc(N3CCOCC3)c2)n1 [Example 10.17, 4-[[2-[(3,5-dimorpholin-4-ylphenyl)amino]pyrim-idin-4-yl]-methyl-amino]benzonitrile], the IC50 rises from 402 nM to 9780 nM (24-fold).

Compared with CN(c1cccc(F)c1)c1ccnc(Nc2cc(N3CCOCC3)cc(N3CCOCC3)c2)n1 [Example 10.5, N-(3,5-dimorpholin-4-ylphenyl)-N′-(3-fluorophenyl)-N′-methyl-pyrimidine-2,4-diamine], CSc1cccc(N(C)c2ccnc(Nc3cc(N4CCOCC4)cc(N4CCOCC4)c3)n2)c1 [Example 10.7, N-(3,5-dimorpholin-4-ylphenyl)-N′-methyl-N′-(3-methylsulfanylphenyl)pyrimidine-2,4-diamine] is 1.9-fold higher in IC50: 340 nM for the first, 638 nM for the second.

Cc1cc(C)cc(N(C)c2ccnc(Nc3cc(N4CCOCC4)cc(N4CCOCC4)c3)n2)c1 [Example 10.8, N′-(3,5-dimethylphenyl)-N-(3,5-dimorpholin-4-ylphenyl)-N′-methyl-pyrimidine-2,4-diamine] and Cc1cc(C)c(N(C)c2ccnc(Nc3cc(N4CCOCC4)cc(N4CCOCC4)c3)n2)c(C)c1 [Example 10.13, N-(3,5-dimorpholin-4-ylphenyl)-N′-methyl-N′-(2,4,6-trimethylphenyl)pyrimidine-2,4-diamine] are within 1.5-fold of each other in IC50: 1100 nM for the first, 811 nM for the second.

CN(c1cccc(C#N)c1)c1ccnc(Nc2cc(N3CCOCC3)cc(N3CCOCC3)c2)n1 [Example 10.10, 3-[[2-[(3,5-dimorpholin-4-ylphenyl)amino]pyrimidin-4-yl]-methyl-amino]benzonitrile] and CN(c1ccc(Cl)c(Cl)c1)c1ccnc(Nc2cc(N3CCOCC3)cc(N3CCOCC3)c2)n1 [Example 10.11, N′-(3,4-dichlorophenyl)-N-(3,5-dimorpholin-4-ylphenyl)-N′-methyl-pyrimidine-2,4-diamine] are within 1.5-fold of each other in IC50: 527 nM for the first, 660 nM for the second.

Going from COc1ccccc1N(C)c1ccnc(Nc2cc(N3CCOCC3)cc(N3CCOCC3)c2)n1 [Example 10.12, N-(3,5-dimorpholin-4-ylphenyl)-N′-(2-methoxyphenyl)-N′-methyl-pyrimidine-2,4-diamine] to CN(c1ccnc(Nc2cc(N3CCOCC3)cc(N3CCOCC3)c2)n1)c1ccccc1F [Example 10.16, N-(3,5-dimorpholin-4-ylphenyl)-N′-(2-fluorophenyl)-N′-methyl-pyrimidine-2,4-diamine], the IC50 rises from 107 nM to 237 nM (2.2-fold). The first is the more potent here.

CN(c1ccnc(Nc2cc(N3CCOCC3)cc(N3CCOCC3)c2)n1)c1ccc(F)cc1F [Example 10.14, N′-(2,4-difluorophenyl)-N-(3,5-dimorpholin-4-ylphenyl)-N′-methyl-pyrimidine-2,4-diamine] and CN(c1ccnc(Nc2cc(N3CCOCC3)cc(N3CCOCC3)c2)n1)c1cccc(F)c1F [Example 14, N′-(2,3-difluorophenyl)-N-(3,5-dimorpholin-4-ylphenyl)-N′-methyl-pyrimidine-2,4-diamine] are within 1.5-fold of each other in IC50: 381 nM for the first, 370 nM for the second.

First: CN(c1ccnc(Nc2cc(N3CCOCC3)cc(N3CCOCC3)c2)n1)c1cc(CO)ccc1Cl [Example 10.19, [4-chloro-3-[[2-[(3,5-dimorpholin-4-ylphenyl)amino]pyrimidin-4-yl]-methyl-amino]phenyl]methanol]
Second: CN(c1cc(Cl)cc(CO)c1)c1ccnc(Nc2cc(N3CCOCC3)cc(N3CCOCC3)c2)n1 [Example 10.20, [3-chloro-5-[[2-[(3,5-dimorpholin-4-ylphenyl)amino]pyrimidin-4-yl]-methyl-amino]phenyl]methanol]
The IC50 of the first is 2.3-fold lower: 150 nM for the first, 338 nM for the second. The first is the more potent here.

Going from COc1ccc(C)c(N(C)c2ccnc(Nc3cc(C(=O)N(C)C)cc(N4CCOCC4)c3)n2)c1 [Example 12.3, 3-[[4-[(5-methoxy-2-methyl-phenyl)-methyl-amino]pyrimidin-2-yl]amino]-N,N-dimethyl-5-morpholin-4-yl-benzamide] to COc1ccc(C)c(N(C)c2ccnc(Nc3cc(N4CCOCC4)cc(N4CCOC[C@@H]4C)c3)n2)c1 [Example 12.8, (S)-N4-(5-methoxy-2-methylphenyl)-N4-methyl-N2-(3-(3-methylmorpholino)-5-morpholinophenyl)pyrimidine2,4-diamine], the IC50 falls from 455 nM to 5.82 nM (78-fold). The second is the more potent here.

Compared with COc1ccc(C)c(N(C)c2ccnc(Nc3cc(N4CCOCC4)cc(N4CCN(C)CC4)c3)n2)c1 [Example 12.4, N′-(5-methoxy-2-methyl-phenyl)-N′-methyl-N-[3-(4-methylpiperazin-1-yl)-5-morpholin-4-yl-phenyl]pyrimidine-2,4-diamine], COc1ccc(C)c(N(C)c2ccnc(Nc3cc(N4CCNCC4)cc(N4CCOCC4)c3)n2)c1 [Example 12.6, N4-(5-methoxy-2-methylphenyl)-N4-methyl-N2-(3-morpholino-5-(piperazin-1-yl)phenyl)pyrimidine-2,4-diamine] is 50-fold lower in IC50: 171 nM for the first, 3.4 nM for the second. The second is the more potent here.

First: COc1ccc(C)c(N(C)c2ccnc(Nc3cc(N4CCOCC4)cc(N4CCC(O)CC4)c3)n2)c1 [Example 12.5, 1-(3-(4-((5-methoxy-2-methylphenyl)(methyl)amino)pyrim-idin-2-ylamino)-5-morpholinophenyl)piperidin-4-ol]
Second: COc1ccc(C)c(N(C)c2ccnc(Nc3cc(N4CCOCC4)cc(N4CCOCC4=O)c3)n2)c1 [Example 12.7, 4-[3-[[4-[(5-methoxy-2-methyl-phenyl)-methyl-amino]pyrimidin-2-yl]amino]-5-morpholin-4-yl-phenyl]morpholin-3-one]
The IC50 of the first is 100-fold lower: 2.95 nM for the first, 305 nM for the second. The first is the more potent here.

COc1ccc(NC(C)=O)c(N(C)c2ccnc(Nc3cc(N4CCOCC4)cc(N4CCOCC4)c3)n2)c1 [Example 13.1, N-[2-[[2-[(3,5-dimorpholin-4-ylphenyl)amino]pyrimidin-4-yl]-methyl-amino]-4-methoxy-phenyl]acetamide] and COc1ccc(NC(C)=O)c(N(C)c2ccnc(Nc3cc(N4CCOCC4)cc(S(C)(=O)=O)c3)n2)c1 [Example 13.2, N-[4-methoxy-2-[methyl-[2-[(3-methylsulfonyl-5-morpholin-4-yl-phenyl)amino]pyrimidin-4-yl]amino]phenyl]acetamide] are within 1.5-fold of each other in IC50: 470 nM for the first, 426 nM for the second.
